According to the supplement of paper PMC5321775:
± gives the standard deviation of the averaged measurements or the uncertainty stated by the source.

How the values were obtained:
[1] = system: Caenorhabditis briggsae HK104; test: Kaplan-Meier median lifespan of treated plate (days); higher = longer lifespan; settings: exposure: chronic from day 1 of adulthood
Procedure: (§1)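 Dose-response lifespan assays in three C. briggsae strains (AF16, HK104, JU1348), run per plate (35-40 animals) on NGM with live OP50-1 and 51 uM FUdR at 20 C. Compound was added to the plate surface and worms were exposed from the first day of adulthood.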

[2] = system: Caenorhabditis briggsae JU1348; test: as above; settings: exposure: chronic from day 1 of adulthood
Procedure: as §1

[3] = system: Caenorhabditis briggsae AF16; test: as above; settings: exposure: chronic from day 1 of adulthood
Procedure: as §1

[4] = system: Caenorhabditis briggsae HK104; test: mean adult lifespan of treated plate (days); higher = longer lifespan; settings: exposure: chronic from day 1 of adulthood
Procedure: as §1

[5] = system: Caenorhabditis briggsae JU1348; test: as above; settings: exposure: chronic from day 1 of adulthood
Procedure: as §1

[6] = system: Caenorhabditis briggsae AF16; test: as above; settings: exposure: chronic from day 1 of adulthood
Procedure: as §1

[7] = system: Caenorhabditis briggsae HK104; test: Kaplan-Meier median lifespan of treated cohort (days); higher = longer lifespan; settings: exposure: chronic from day 1 of adulthood, single dose per compound (concentration not stated in sheet)
Procedure: (§2)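 Caenorhabditis lifespan assay (CITP). Synchronised hermaphrodites were moved on the first day of adulthood onto 35 mm NGM plates with live E. coli OP50-1 and 51 uM FUdR, with the compound spread on the plate. Worms were kept at 20 C and scored for survival.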

[8] = system: Caenorhabditis elegans JU775; test: as above; settings: exposure: chronic from day 1 of adulthood, single dose per compound (concentration not stated in sheet)
Procedure: as §2

[9] = system: Caenorhabditis elegans MY16; test: as above; settings: exposure: chronic from day 1 of adulthood, single dose per compound (concentration not stated in sheet)
Procedure: as §2

[10] = system: Caenorhabditis briggsae JU1348; test: as above; settings: exposure: chronic from day 1 of adulthood, single dose per compound (concentration not stated in sheet)
Procedure: as §2

[11] = system: Caenorhabditis elegans N2; test: as above; settings: exposure: chronic from day 1 of adulthood, single dose per compound (concentration not stated in sheet)
Procedure: as §2

[12] = system: Caenorhabditis briggsae AF16; test: as above; settings: exposure: chronic from day 1 of adulthood, single dose per compound (concentration not stated in sheet)
Procedure: as §2

[13] = system: Caenorhabditis briggsae HK104; test: mean adult lifespan of treated cohort (days); higher = longer lifespan; settings: exposure: chronic from day 1 of adulthood, single dose per compound (concentration not stated in sheet)
Procedure: as §2

[14] = system: Caenorhabditis elegans JU775; test: as above; settings: exposure: chronic from day 1 of adulthood, single dose per compound (concentration not stated in sheet)
Procedure: as §2

[15] = system: Caenorhabditis elegans MY16; test: as above; settings: exposure: chronic from day 1 of adulthood, single dose per compound (concentration not stated in sheet)
Procedure: as §2

[16] = system: Caenorhabditis briggsae JU1348; test: as above; settings: exposure: chronic from day 1 of adulthood, single dose per compound (concentration not stated in sheet)
Procedure: as §2

[17] = system: Caenorhabditis elegans N2; test: as above; settings: exposure: chronic from day 1 of adulthood, single dose per compound (concentration not stated in sheet)
Procedure: as §2

[18] = system: Caenorhabditis briggsae AF16; test: as above; settings: exposure: chronic from day 1 of adulthood, single dose per compound (concentration not stated in sheet)
Procedure: as §2

SMILES: Cc1ccc2c(c1)sc(-c1ccc(N(C)C)cc1)[n+]2C [Thioflavin T]
- Kaplan-Meier median lifespan ([1]; 5.3 µM): 33 ± 2.8
- Kaplan-Meier median lifespan ([1]; 26.5 µM): 35
- Kaplan-Meier median lifespan ([1]; 106 µM): 6 ± 1.4
- Kaplan-Meier median lifespan ([1]; 530 µM): 5.5 ± 2.1
- Kaplan-Meier median lifespan ([2]; 0.5 µM): 24 ± 3.1
- Kaplan-Meier median lifespan ([2]; 5 µM): 23.6 ± 2.9
- Kaplan-Meier median lifespan ([2]; 25 µM): 26.2 ± 3.4
- Kaplan-Meier median lifespan ([2]; 26.5 µM): 33 ± 2.8
- Kaplan-Meier median lifespan ([2]; 100 µM): 22.4 ± 7
- Kaplan-Meier median lifespan ([2]; 106 µM): 4.67 ± 0.58
- Kaplan-Meier median lifespan ([2]; 530 µM): 4
- Kaplan-Meier median lifespan ([3]; 5.3 µM): 28
- Kaplan-Meier median lifespan ([3]; 26.5 µM): 24
- Kaplan-Meier median lifespan ([3]; 106 µM): 5.67 ± 1.1
- Kaplan-Meier median lifespan ([3]; 530 µM): 5.67 ± 1.1
- mean adult lifespan of treated plate ([4]; 5.3 µM): 33.5 ± 1.7
- mean adult lifespan of treated plate ([4]; 26.5 µM): 30.8 ± 3.1
- mean adult lifespan of treated plate ([4]; 106 µM): 5.61 ± 0.26
- mean adult lifespan of treated plate ([4]; 530 µM): 5.71 ± 0.35
- mean adult lifespan of treated plate ([5]; 0.5 µM): 24.1 ± 1.1
- mean adult lifespan of treated plate ([5]; 5 µM): 24.3 ± 1.2
- mean adult lifespan of treated plate ([5]; 5.3 µM): 19.49 ± 0.17
- mean adult lifespan of treated plate ([5]; 25 µM): 25.9 ± 1.1
- mean adult lifespan of treated plate ([5]; 26.5 µM): 28.3 ± 1.2
- mean adult lifespan of treated plate ([5]; 100 µM): 21.5 ± 1.7
- mean adult lifespan of treated plate ([5]; 106 µM): 5.01 ± 0.12
- mean adult lifespan of treated plate ([5]; 530 µM): 4.33 ± 0.092
- mean adult lifespan of treated plate ([6]; 5.3 µM): 28.1 ± 1.5
- mean adult lifespan of treated plate ([6]; 26.5 µM): 17 ± 1
- mean adult lifespan of treated plate ([6]; 106 µM): 5.48 ± 0.12
- mean adult lifespan of treated plate ([6]; 530 µM): 5.75 ± 0.26
- Kaplan-Meier median lifespan [7]: 41.4 ± 3.5
- Kaplan-Meier median lifespan [8]: 27.7 ± 2.4
- Kaplan-Meier median lifespan [9]: 27.2 ± 3.1
- Kaplan-Meier median lifespan [10]: 28.1 ± 4.4
- Kaplan-Meier median lifespan [11]: 21.4 ± 5
- Kaplan-Meier median lifespan [12]: 31.7 ± 5.8
- mean adult lifespan of treated cohort [13]: 39.5 ± 1
- mean adult lifespan of treated cohort [14]: 25.5 ± 1
- mean adult lifespan of treated cohort [15]: 26.7 ± 0.74
- mean adult lifespan of treated cohort [16]: 27.6 ± 0.89
- mean adult lifespan of treated cohort [17]: 20.2 ± 0.93
- mean adult lifespan of treated cohort [18]: 31.3 ± 1.2

SMILES: O=C(O)CCC(=O)C(=O)O [alpha-ketoglutaric acid]
- Kaplan-Meier median lifespan ([1]; 100 µM): 36 ± 4.6
- Kaplan-Meier median lifespan ([1]; 500 µM): 37.2 ± 4
- Kaplan-Meier median lifespan ([1]; 800 µM): 36.3 ± 4.7
- Kaplan-Meier median lifespan ([1]; 1000 µM): 37.2 ± 6.3
- Kaplan-Meier median lifespan ([1]; 4000 µM): 35 ± 5
- Kaplan-Meier median lifespan ([1]; 16000 µM): 23.8 ± 2.1
- Kaplan-Meier median lifespan ([1]; 40000 µM): 25.8 ± 2.1
- Kaplan-Meier median lifespan ([2]; 100 µM): 23.3 ± 2.5
- Kaplan-Meier median lifespan ([2]; 500 µM): 25.3 ± 2.5
- Kaplan-Meier median lifespan ([2]; 800 µM): 23 ± 4.2
- Kaplan-Meier median lifespan ([2]; 1000 µM): 28 ± 3
- Kaplan-Meier median lifespan ([2]; 4000 µM): 22.8 ± 5.2
- Kaplan-Meier median lifespan ([2]; 16000 µM): 12.5 ± 1
- Kaplan-Meier median lifespan ([2]; 40000 µM): 11 ± 1.1
- Kaplan-Meier median lifespan ([3]; 100 µM): 26.5 ± 1.7
- Kaplan-Meier median lifespan ([3]; 500 µM): 25 ± 2.2
- Kaplan-Meier median lifespan ([3]; 800 µM): 26
- Kaplan-Meier median lifespan ([3]; 1000 µM): 28 ± 2.5
- Kaplan-Meier median lifespan ([3]; 4000 µM): 25.9 ± 5.6
- Kaplan-Meier median lifespan ([3]; 16000 µM): 19 ± 1.6
- Kaplan-Meier median lifespan ([3]; 40000 µM): 18.5 ± 1.9
- mean adult lifespan of treated plate ([4]; 100 µM): 33.8 ± 1.2
- mean adult lifespan of treated plate ([4]; 500 µM): 35.3 ± 1.6
- mean adult lifespan of treated plate ([4]; 800 µM): 33.7 ± 1.4
- mean adult lifespan of treated plate ([4]; 1000 µM): 36.7 ± 1.3
- mean adult lifespan of treated plate ([4]; 4000 µM): 33 ± 1.4
- mean adult lifespan of treated plate ([4]; 16000 µM): 23.6 ± 1.1
- mean adult lifespan of treated plate ([4]; 40000 µM): 24.7 ± 1.1
- mean adult lifespan of treated plate ([5]; 100 µM): 23.3 ± 1.4
- mean adult lifespan of treated plate ([5]; 500 µM): 23.5 ± 1.1
- mean adult lifespan of treated plate ([5]; 800 µM): 22.7 ± 1.1
- mean adult lifespan of treated plate ([5]; 1000 µM): 25.5 ± 1.3
- mean adult lifespan of treated plate ([5]; 4000 µM): 24.6 ± 1.9
- mean adult lifespan of treated plate ([5]; 16000 µM): 14.7 ± 1.2
- mean adult lifespan of treated plate ([5]; 40000 µM): 11.7 ± 0.54
- mean adult lifespan of treated plate ([6]; 100 µM): 27 ± 1.5
- mean adult lifespan of treated plate ([6]; 500 µM): 21.7 ± 1.1
- mean adult lifespan of treated plate ([6]; 800 µM): 24.9 ± 0.84
- mean adult lifespan of treated plate ([6]; 1000 µM): 27.5 ± 1.4
- mean adult lifespan of treated plate ([6]; 4000 µM): 26.5 ± 1.3
- mean adult lifespan of treated plate ([6]; 16000 µM): 20.2 ± 1.1
- mean adult lifespan of treated plate ([6]; 40000 µM): 20.3 ± 1
- Kaplan-Meier median lifespan [7]: 34.7 ± 2.5
- Kaplan-Meier median lifespan [8]: 25.6 ± 1.7
- Kaplan-Meier median lifespan [9]: 25.3 ± 1.4
- Kaplan-Meier median lifespan [10]: 25.9 ± 2.3
- Kaplan-Meier median lifespan [11]: 21.9 ± 1.6
- Kaplan-Meier median lifespan [12]: 26.3 ± 1.7
- mean adult lifespan of treated cohort [13]: 33.8 ± 0.71
- mean adult lifespan of treated cohort [14]: 24.6 ± 0.58
- mean adult lifespan of treated cohort [15]: 24.9 ± 0.53
- mean adult lifespan of treated cohort [16]: 24.6 ± 0.77
- mean adult lifespan of treated cohort [17]: 21.4 ± 0.45
- mean adult lifespan of treated cohort [18]: 25.9 ± 0.89

SMILES: O=C(O)CCCCC1CCSS1 (stereo not drawn) [alpha-lipoic acid]
- Kaplan-Meier median lifespan [7]: 37.2 ± 1.3
- Kaplan-Meier median lifespan [8]: 18.4 ± 4.2
- Kaplan-Meier median lifespan [9]: 15.6 ± 2.1
- Kaplan-Meier median lifespan [10]: 25.8 ± 1.5
- Kaplan-Meier median lifespan [11]: 19.2 ± 1.5
- Kaplan-Meier median lifespan [12]: 28.4 ± 3.2
- mean adult lifespan of treated cohort [13]: 35.9 ± 0.96
- mean adult lifespan of treated cohort [14]: 18.3 ± 0.61
- mean adult lifespan of treated cohort [15]: 16.3 ± 0.61
- mean adult lifespan of treated cohort [16]: 26.4 ± 0.83
- mean adult lifespan of treated cohort [17]: 19.2 ± 0.4
- mean adult lifespan of treated cohort [18]: 27.5 ± 0.76

SMILES: CC(=O)Oc1ccccc1C(=O)O [aspirin]
- Kaplan-Meier median lifespan [7]: 37.5 ± 1.9
- Kaplan-Meier median lifespan [8]: 17.4 ± 4.3
- Kaplan-Meier median lifespan [9]: 16.4 ± 1.4
- Kaplan-Meier median lifespan [10]: 28.3 ± 4.4
- Kaplan-Meier median lifespan [11]: 17.5 ± 1.1
- Kaplan-Meier median lifespan [12]: 27.8 ± 3.7
- mean adult lifespan of treated cohort [13]: 37.2 ± 1
- mean adult lifespan of treated cohort [14]: 18.3 ± 0.55
- mean adult lifespan of treated cohort [15]: 17 ± 0.49
- mean adult lifespan of treated cohort [16]: 28 ± 1.1
- mean adult lifespan of treated cohort [17]: 17.9 ± 0.3
- mean adult lifespan of treated cohort [18]: 27 ± 0.81

SMILES: COc1cc(/C=C/C(=O)CC(=O)/C=C/c2ccc(O)c(OC)c2)ccc1O [curcumin]
- Kaplan-Meier median lifespan [7]: 30.7 ± 2.2
- Kaplan-Meier median lifespan [8]: 19.3 ± 2
- Kaplan-Meier median lifespan [9]: 15.3 ± 1.6
- Kaplan-Meier median lifespan [10]: 21.2 ± 2.8
- Kaplan-Meier median lifespan [11]: 17.7 ± 0.82
- Kaplan-Meier median lifespan [12]: 23.2 ± 1.7
- mean adult lifespan of treated cohort [13]: 30.5 ± 0.87
- mean adult lifespan of treated cohort [14]: 19.5 ± 0.66
- mean adult lifespan of treated cohort [15]: 15.6 ± 0.46
- mean adult lifespan of treated cohort [16]: 21.3 ± 0.66
- mean adult lifespan of treated cohort [17]: 17.1 ± 0.34
- mean adult lifespan of treated cohort [18]: 21.9 ± 0.82

SMILES: O=c1c(O)c(-c2ccc(O)c(O)c2)oc2cc(O)cc(O)c12 [quercetin]
- Kaplan-Meier median lifespan [7]: 35.5 ± 1.7
- Kaplan-Meier median lifespan [8]: 15.2 ± 2.1
- Kaplan-Meier median lifespan [9]: 15 ± 1.8
- Kaplan-Meier median lifespan [10]: 24.8 ± 2.5
- Kaplan-Meier median lifespan [11]: 17.8 ± 0.96
- Kaplan-Meier median lifespan [12]: 28 ± 2.2
- mean adult lifespan of treated cohort [13]: 33 ± 0.87
- mean adult lifespan of treated cohort [14]: 17.4 ± 0.69
- mean adult lifespan of treated cohort [15]: 15.9 ± 0.49
- mean adult lifespan of treated cohort [16]: 25.2 ± 0.76
- mean adult lifespan of treated cohort [17]: 17.6 ± 0.32
- mean adult lifespan of treated cohort [18]: 26.5 ± 0.79

SMILES: CCCC(CCC)C(=O)O [valproic acid]
- Kaplan-Meier median lifespan [7]: 35.3 ± 1.9
- Kaplan-Meier median lifespan [8]: 17.4 ± 3.1
- Kaplan-Meier median lifespan [9]: 14.6 ± 0.98
- Kaplan-Meier median lifespan [10]: 21.9 ± 1.2
- Kaplan-Meier median lifespan [11]: 17.6 ± 0.54
- Kaplan-Meier median lifespan [12]: 22 ± 2.6
- mean adult lifespan of treated cohort [13]: 32.9 ± 0.96
- mean adult lifespan of treated cohort [14]: 18.2 ± 0.56
- mean adult lifespan of treated cohort [15]: 14.7 ± 0.48
- mean adult lifespan of treated cohort [16]: 21.9 ± 0.85
- mean adult lifespan of treated cohort [17]: 17.6 ± 0.42
- mean adult lifespan of treated cohort [18]: 21.8 ± 0.98
